Results as given in PMC7265341, “Quantifying CDK inhibitor selectivity in live cells” (Nature Communications, 2020).
Like-named read-outs stand apart in the source and are kept apart here.

Assays:
Format in all cases: binding
CDK6 = CDK6 (Homo sapiens, UniProt Q00534); assay: Real-time analysis of engagement (kobs, IC50 vs time) in live cells, CDK6; conditions: real-time BRET, 25 °C; response to reviewers
Protocol: CDK2/Cyclin E1 complex was measured in the donor NanoBRET channel (using the standard 450 nm bandpass filter on the Glomax Discover plate reader). Ternary complex was measured in the presence […]
the acceptor NanoBRET channel (using the standard 600 nm longpass filter on the Glomax Discover plate reader). Total LgBiT expression level was determined in the presence of a saturating concentration […]
mg/mL digitonin (as a permeabilization agent). […]
respectively, at probe concentrations identical to those described for steady state analysis of target engagement. Cells were pre-equilibrated with energy transfer probe for 40 min prior to addition of […]
intervals at 25 °C (temperature reduced to avoid evaporation of cell culture medium). To quantify […]
vs time. Apparent association rate was also plotted as k obs vs [RGB286638], where kobs was determined using the one phase association equation (Supplementary Equation 2) in graphpad prism.
Y=Y0 + (Plateau-Y0)*(1-e-K*X) (2) where Y = mBRET ratio, X = time, and K = the observed rate constant ( kobs). Both analyses support […]
Generation of endogenously edited CDK-HiBiT cell lines and target engagement analysis at endogenous protein levels. HEK293 cells were edited to express HiBiT fused to the N -terminus of CDK9 or the C-terminus of CDK16, as described previously 3. For CDK9, the sequence of the guide RNA was […]

CDK18/Cyclin Y = CDK18/Cyclin Y (Homo sapiens, UniProt Q07002); assay: NanoBRET live-cell target engagement, CDK18-NanoLuc/Cyclin Y in HEK-293; conditions: for IC50: read-out: CDK18/Y IC50; for inhibition at 10 µM: read-out: CDK18/Y Inhibition at 10µM (%), 10µM
CDK18/Cyclin Y, sequence (Q07002 whole entry): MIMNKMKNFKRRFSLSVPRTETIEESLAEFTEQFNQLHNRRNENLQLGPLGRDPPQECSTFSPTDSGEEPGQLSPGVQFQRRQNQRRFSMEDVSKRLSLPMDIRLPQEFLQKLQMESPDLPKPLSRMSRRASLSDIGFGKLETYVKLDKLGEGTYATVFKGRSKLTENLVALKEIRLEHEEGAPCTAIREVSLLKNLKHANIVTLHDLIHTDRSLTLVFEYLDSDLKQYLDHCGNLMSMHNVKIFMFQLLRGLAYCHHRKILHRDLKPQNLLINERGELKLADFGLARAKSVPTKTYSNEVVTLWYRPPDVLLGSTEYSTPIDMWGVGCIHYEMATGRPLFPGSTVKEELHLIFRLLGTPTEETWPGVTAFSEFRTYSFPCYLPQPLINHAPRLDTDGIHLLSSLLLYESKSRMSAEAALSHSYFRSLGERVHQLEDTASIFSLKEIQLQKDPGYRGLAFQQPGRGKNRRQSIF
CDK18/Cyclin Y, sequence (Q8ND76 whole entry partner): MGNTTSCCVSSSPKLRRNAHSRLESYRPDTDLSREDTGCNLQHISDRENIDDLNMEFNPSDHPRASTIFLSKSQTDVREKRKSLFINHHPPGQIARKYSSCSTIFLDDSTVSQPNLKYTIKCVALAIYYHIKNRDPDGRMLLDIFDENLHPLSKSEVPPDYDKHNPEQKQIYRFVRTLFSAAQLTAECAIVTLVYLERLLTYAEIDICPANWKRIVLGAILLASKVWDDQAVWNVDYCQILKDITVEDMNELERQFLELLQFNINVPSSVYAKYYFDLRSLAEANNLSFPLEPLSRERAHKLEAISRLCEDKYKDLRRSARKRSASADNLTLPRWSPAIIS

CDK2/cyclin A1 = CDK2/cyclin A1 (Homo sapiens, UniProt P24941); assay: NanoBRET target engagement, CDK2-NanoLuc co-expressed with cyclin A1 in HEK-293; conditions: probe 5 0.5µM
CDK6/Cyclin D1 = CDK6/Cyclin D1 (Homo sapiens, UniProt Q00534); assay: NanoBRET live-cell target engagement, NanoLuc-CDK6/Cyclin D1 in HEK-293; conditions: for inhibition at 10 µM: read-out: CDK6/D1 Inhibition at 10µM (%); for CDK6 Occupancy (%): Panel A
CDK6/Cyclin D1, sequence (Q00534 whole entry): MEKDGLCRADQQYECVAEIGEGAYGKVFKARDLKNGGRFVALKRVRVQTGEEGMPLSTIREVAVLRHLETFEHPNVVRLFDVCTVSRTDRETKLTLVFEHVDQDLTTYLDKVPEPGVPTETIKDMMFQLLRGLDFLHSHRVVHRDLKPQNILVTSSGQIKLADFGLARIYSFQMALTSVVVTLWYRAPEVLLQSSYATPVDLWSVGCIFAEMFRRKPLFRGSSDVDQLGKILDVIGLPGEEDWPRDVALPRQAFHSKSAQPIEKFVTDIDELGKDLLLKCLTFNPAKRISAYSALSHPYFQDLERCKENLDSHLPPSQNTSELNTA
CDK6/Cyclin D1, sequence (P24385 whole entry partner): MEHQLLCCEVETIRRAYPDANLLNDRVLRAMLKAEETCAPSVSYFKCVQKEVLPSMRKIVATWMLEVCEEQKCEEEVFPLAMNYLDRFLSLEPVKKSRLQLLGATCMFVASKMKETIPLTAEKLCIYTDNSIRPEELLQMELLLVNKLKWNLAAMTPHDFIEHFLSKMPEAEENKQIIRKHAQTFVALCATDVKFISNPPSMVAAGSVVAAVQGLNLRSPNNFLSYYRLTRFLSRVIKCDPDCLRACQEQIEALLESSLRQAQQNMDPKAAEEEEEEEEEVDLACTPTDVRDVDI

CDK6, sequence (Q00534 whole entry): as the sequence (Q00534 whole entry) above
CDK6, sequence (P24385 whole entry partner): as the sequence (P24385 whole entry partner) above

COCCN1CCN(Cc2ccc(-c3n[nH]c4c3C(=O)c3c(NC(=O)NN5CCOCC5)cccc3-4)cc2)CC1 [RGB286638]
CDK6 off rate from kobs values (CDK6): > 300 min
IC50 (CDK18/Cyclin Y; average (± SEM where n=3)): 0.01 µM
IC50 (CDK18/Cyclin Y; independent experiment 1): 0.0086 µM
IC50 (CDK18/Cyclin Y; independent experiment 2): 0.011 µM
inhibition at 10 µM (CDK18/Cyclin Y; average of experiments): 99.6%
inhibition at 10 µM (CDK18/Cyclin Y; independent experiment 1): 97.4%
inhibition at 10 µM (CDK18/Cyclin Y; independent experiment 2): 102%
increase of CDK2 engagement potency with cyclin E1 compared with cyclin A1 co-expression (CDK2/cyclin A1): ~2 orders of magnitude
inhibition at 10 µM (CDK6/Cyclin D1; average of experiments): 99.1%
inhibition at 10 µM (CDK6/Cyclin D1; independent experiment 1): 98.9%
inhibition at 10 µM (CDK6/Cyclin D1; independent experiment 2): 99.4%
CDK6 Occupancy (%) (CDK6/Cyclin D1; LOG10([RGB-286638]) 0.045757 LOG10(µM)): 96.3121%
CDK6 Occupancy (%) (CDK6/Cyclin D1; LOG10([RGB-286638]) 0.522879 LOG10(µM)): 95.6738%
CDK6 Occupancy (%) (CDK6/Cyclin D1; LOG10([RGB-286638]) 1 LOG10(µM)): 95.6028%
CDK6 Occupancy (%) (CDK6/Cyclin D1; LOG10([RGB-286638]) -0.43136 LOG10(µM)): 95.1064%
CDK6 Occupancy (%) (CDK6/Cyclin D1; LOG10([RGB-286638]) -0.90849 LOG10(µM)): 90.4255%
CDK6 Occupancy (%) (CDK6/Cyclin D1; LOG10([RGB-286638]) -1.38561 LOG10(µM)): 76.8794%
CDK6 Occupancy (%) (CDK6/Cyclin D1; LOG10([RGB-286638]) -1.86273 LOG10(µM)): 49.6454%
CDK6 Occupancy (%) (CDK6/Cyclin D1; LOG10([RGB-286638]) -2.33985 LOG10(µM)): 19.8582%
CDK6 Occupancy (%) (CDK6/Cyclin D1; LOG10([RGB-286638]) -2.81697 LOG10(µM)): 7.0922%
CDK6 Occupancy (%) (CDK6/Cyclin D1; LOG10([RGB-286638]) -3.29409 LOG10(µM)): 2.128%
CDK6 Occupancy (%) (CDK6/Cyclin D1; LOG10([RGB-286638]) -3.77121 LOG10(µM)): 0%
IC50 (CDK6/Cyclin D1; average (± SEM where n=3), read-out: CDK6/D1 IC50): 0.012 ± 0.001 µM
IC50 (CDK6/Cyclin D1; independent experiment 1, read-out: CDK6/D1 IC50): 0.013 µM
IC50 (CDK6/Cyclin D1; independent experiment 2, read-out: CDK6/D1 IC50): 0.0097 µM
IC50 (CDK6/Cyclin D1; independent experiment 3, read-out: CDK6/D1 IC50): 0.014 µM
IC50 (CDK6/Cyclin D1; live HEK-293, 2 h, mean ± S.E.M. (n=3) or mean (n=2), read-out: IC50 for CDK/cyclin complexes, CDK6/D1): 0.012 to 0.016 µM
